The source made the active and inactive calls. No cut-off for these calls is given here.
Legend:
4T1 [1] = assay: Cytotoxicity against mouse 4T1 cells assessed as reduction in cell viability at 100 nM measured after 24 hrs by RealTime-glo cell viability assay; assay type: functional, cell-based
MDA-MB-231 [2] = assay: Cytotoxicity against human MDA-MB-231 cells assessed as reduction in cell viability at 100 nM measured after 24 hrs by RealTime-glo cell viability assay; assay type: functional, cell-based
4T1 [3] = assay: Cytotoxicity against mouse 4T1 cells assessed as reduction in cell viability at 100 nM measured after 24 hrs in presence of SAHA by RealTime-glo cell viability assay; assay type: functional, cell-based
MDA-MB-231 [4] = assay: Cytotoxicity against human MDA-MB-231 cells assessed as reduction in cell viability at 100 nM measured after 24 hrs in presence of SAHA by RealTime-glo cell viability assay; assay type: functional, cell-based
[5] = Toxicity in mouse B16-F10 cells implanted C57BL/6 mouse at 0.25 ug/kg, ip administered daily for 28 days; assay type: organism-based; conditions: in vivo, 0.00025 mg/kg, dose 0.25 µg/kg, time 28 day
[6] = Toxicity in mouse B16-F10 cells implanted C57BL/6 mouse at 0.25 ug/kg, ip administered daily for 28 days in presence of SAHA; assay type: organism-based; conditions: in vivo, 0.00025 mg/kg, dose 0.25 µg/kg, time 28 day
[7] = Toxicity in mouse B16-F10 cells implanted C57BL/6 mouse assessed as effect on body weight at 0.25 ug/kg, ip administered daily for 28 days; assay type: organism-based; conditions: in vivo, 0.00025 mg/kg, dose 0.25 µg/kg, time 28 day
[8] = Toxicity in mouse B16-F10 cells implanted C57BL/6 mouse assessed as effect on body weight at 0.25 ug/kg, ip administered daily for 28 days in presence of SAHA; assay type: organism-based; conditions: in vivo, 0.00025 mg/kg, dose 0.25 µg/kg, time 28 day
B16-F10 [9] = assay: Antitumor activity against mouse B16-F10 cells implanted in C57BL/6 mouse assessed as reduction in tumor burden at 0.25 ug/kg, ip administered every second day for 18 days; assay type: functional, organism-based; conditions: dose 0.25 µg/kg, time 18.0 day
B16-F10 [10] = assay: Antitumor activity against mouse B16-F10 cells implanted in C57BL/6 mouse assessed as reduction in tumor burden at 0.25 ug/kg, ip administered every second day for 18 days in presence of SAHA; assay type: functional, organism-based; conditions: dose 0.25 µg/kg, time 18.0 day
[11] = Toxicity in 4T1 cells implanted BALB/c mouse assessed as stress at 0.25 ug/kg, ip administered daily for 18 days; assay type: organism-based; conditions: in vivo, 0.00025 mg/kg, 432 h, dose 0.25 µg/kg, time 18 day
[12] = Toxicity in 4T1 cells implanted BALB/c mouse assessed as stress at 0.25 ug/kg, ip administered daily for 18 days in presence of SAHA; assay type: organism-based; conditions: in vivo, 0.00025 mg/kg, 432 h, dose 0.25 µg/kg, time 18 day
[13] = Toxicity in 4T1 cells implanted BALB/c mouse assessed as body weight loss at 0.25 ug/kg, ip administered daily for 18 days; assay type: organism-based; conditions: in vivo, 0.00025 mg/kg, 432 h, dose 0.25 µg/kg, time 18 day
[14] = Toxicity in 4T1 cells implanted BALB/c mouse assessed as body weight loss at 0.25 ug/kg, ip administered daily for 18 days in presence of SAHA; assay type: organism-based; conditions: in vivo, 0.00025 mg/kg, 432 h, dose 0.25 µg/kg, time 18 day
4T1 [15] = assay: Antitumor activity against mouse 4T1 cells implanted in BALB/c mouse assessed as reduction in tumor burden at 0.25 ug/kg, ip administered daily for 18 days in presence of SAHA relative to control; assay type: functional; design: scale not given: the % may be the effect or the level left; conditions: dose 0.25 µg/kg, time 18 day
Mus musculus [16] = assay: Immunomodulatory activity in mouse 4T1 cells implanted BALB/c mouse assessed as reduction in Ccl2 gene expression at 0.25 ug/kg, ip administered daily for 18 days by RT-qPCR analysis; assay type: functional, organism-based; conditions: dose 0.25 µg/kg, time 18.0 day
Mus musculus [17] = assay: Immunomodulatory activity in mouse 4T1 cells implanted BALB/c mouse assessed as reduction in Ccl5 gene expression at 0.25 ug/kg, ip administered daily for 18 days by RT-qPCR analysis; assay type: functional, organism-based; conditions: dose 0.25 µg/kg, time 18.0 day
Mus musculus [18] = assay: Immunomodulatory activity in mouse 4T1 cells implanted BALB/c mouse assessed as reduction in Ccl20 gene expression at 0.25 ug/kg, ip administered daily for 18 days by RT-qPCR analysis; assay type: functional, organism-based; conditions: dose 0.25 µg/kg, time 18.0 day
Mus musculus [19] = assay: Immunomodulatory activity in mouse 4T1 cells implanted BALB/c mouse assessed as reduction in Cxcl10 gene expression at 0.25 ug/kg, ip administered daily for 18 days by RT-qPCR analysis; assay type: functional, organism-based; conditions: dose 0.25 µg/kg, time 18.0 day
Mus musculus [20] = assay: Immunomodulatory activity in mouse 4T1 cells implanted BALB/c mouse assessed as induction of Il1a gene expression at 0.25 ug/kg, ip administered daily for 18 days by RT-qPCR analysis; assay type: functional, organism-based; conditions: dose 0.25 µg/kg, time 18.0 day
Mus musculus [21] = assay: Immunomodulatory activity in mouse 4T1 cells implanted BALB/c mouse assessed as reduction in total macrophage infiltration into tumors at 0.25 ug/kg, ip administered daily for 18 days by F4/80 staining based immunofluorescence microscopy; assay type: functional, organism-based; conditions: dose 0.25 µg/kg, time 18.0 day
4T1 [22] = assay: Cytotoxicity against mouse 4T1 cells assessed as reduction in cell viability at 100 nM measured after 24 hrs in presence of 1,25D by RealTime-glo cell viability assay; assay type: functional, cell-based
MDA-MB-231 [23] = assay: Cytotoxicity against human MDA-MB-231 cells assessed as reduction in cell viability at 100 nM measured after 24 hrs in presence of 1,25D by RealTime-glo cell viability assay; assay type: functional, cell-based
[24] = molecular target: T1, Protein deacetylase HDAC6 (Mus musculus) (UniProt Q9Z2V5); assay: Inhibition of HDAC6 in mouse 4T1 cells assessed as induction of tubulin acetylation at 100 nM measured after 6 hrs by Western blot analysis; assay type: cell-based
T1 sequence (whole entry): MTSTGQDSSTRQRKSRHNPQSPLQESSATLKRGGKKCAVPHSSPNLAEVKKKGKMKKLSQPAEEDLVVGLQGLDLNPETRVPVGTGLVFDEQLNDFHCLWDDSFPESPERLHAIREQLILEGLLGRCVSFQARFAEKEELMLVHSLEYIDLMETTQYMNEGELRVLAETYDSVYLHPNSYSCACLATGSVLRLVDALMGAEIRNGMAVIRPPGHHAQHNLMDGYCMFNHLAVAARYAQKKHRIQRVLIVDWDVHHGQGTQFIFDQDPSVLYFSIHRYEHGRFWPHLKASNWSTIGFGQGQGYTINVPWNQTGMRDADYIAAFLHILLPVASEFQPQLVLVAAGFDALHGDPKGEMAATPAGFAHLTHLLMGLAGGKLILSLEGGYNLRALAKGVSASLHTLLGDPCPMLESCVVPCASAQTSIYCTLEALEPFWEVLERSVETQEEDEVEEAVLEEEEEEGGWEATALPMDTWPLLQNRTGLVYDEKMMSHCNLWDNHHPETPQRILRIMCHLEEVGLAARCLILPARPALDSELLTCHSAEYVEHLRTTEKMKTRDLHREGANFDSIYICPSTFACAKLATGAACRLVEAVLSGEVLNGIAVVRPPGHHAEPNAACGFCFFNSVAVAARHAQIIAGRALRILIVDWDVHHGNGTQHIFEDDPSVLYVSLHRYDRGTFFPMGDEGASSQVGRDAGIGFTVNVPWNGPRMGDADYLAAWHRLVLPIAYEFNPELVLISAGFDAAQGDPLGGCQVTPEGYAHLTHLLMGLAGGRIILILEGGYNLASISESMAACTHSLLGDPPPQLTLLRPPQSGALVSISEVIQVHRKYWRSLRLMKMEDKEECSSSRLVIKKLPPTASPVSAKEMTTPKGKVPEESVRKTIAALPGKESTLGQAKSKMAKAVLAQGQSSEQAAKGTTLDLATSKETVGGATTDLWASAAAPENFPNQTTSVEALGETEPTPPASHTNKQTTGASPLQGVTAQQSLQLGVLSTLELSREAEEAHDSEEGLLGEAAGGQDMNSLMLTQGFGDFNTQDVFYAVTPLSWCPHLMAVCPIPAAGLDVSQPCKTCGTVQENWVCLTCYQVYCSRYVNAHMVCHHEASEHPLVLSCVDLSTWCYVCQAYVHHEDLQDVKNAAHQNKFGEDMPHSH

[25] = molecular target: T2, Vitamin D3 receptor (Mus musculus) (UniProt P48281); assay: Agonist activity at VDR in mouse B16-F10 cells assessed as induction of Cyp24a1 gene at 100 nM measured after 24 hrs in presence of 1,25D by RT-qPCR analysis; assay type: cell-based; conditions: filed as agonist
T2 sequence (whole entry): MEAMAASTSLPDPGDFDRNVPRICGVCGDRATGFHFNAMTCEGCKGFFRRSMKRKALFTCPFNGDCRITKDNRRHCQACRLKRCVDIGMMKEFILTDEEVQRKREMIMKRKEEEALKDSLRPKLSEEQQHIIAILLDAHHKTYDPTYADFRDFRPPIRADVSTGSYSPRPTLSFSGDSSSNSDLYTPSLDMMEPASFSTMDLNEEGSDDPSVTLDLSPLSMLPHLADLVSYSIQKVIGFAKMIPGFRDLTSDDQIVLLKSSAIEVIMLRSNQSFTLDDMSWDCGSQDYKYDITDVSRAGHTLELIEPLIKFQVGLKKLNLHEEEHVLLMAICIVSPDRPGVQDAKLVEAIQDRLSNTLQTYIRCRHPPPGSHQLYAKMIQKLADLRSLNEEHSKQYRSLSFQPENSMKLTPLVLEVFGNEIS

[26] = molecular target: T1, Protein deacetylase HDAC6 (Mus musculus); assay: Inhibition of HDAC6 in mouse B16-F10 cells assessed as induction of tubulin acetylation at 100 nM measured after 6 hrs by Western blot analysis; assay type: cell-based
[27] = Toxicity in mouse B16-F10 cells implanted C57BL/6 mouse at 80 mg/kg, ip administered daily for 28 days; assay type: organism-based; conditions: in vivo, time 28 day
[28] = Toxicity in mouse B16-F10 cells implanted C57BL/6 mouse at 80 mg/kg, ip administered daily for 28 days in presence of 1,25D; assay type: organism-based; conditions: in vivo, time 28 day
[29] = Toxicity in mouse B16-F10 cells implanted C57BL/6 mouse assessed as effect on body weight at 80 mg/kg, ip administered daily for 28 days; assay type: organism-based; conditions: in vivo, time 28 day
[30] = Toxicity in mouse B16-F10 cells implanted C57BL/6 mouse assessed as effect on body weight at 80 mg/kg, ip administered daily for 28 days in presence of 1,25D; assay type: organism-based; conditions: in vivo, time 28 day
B16-F10 [31] = assay: Antitumor activity against mouse B16-F10 cells implanted in C57BL/6 mouse assessed as reduction in tumor burden at 80 mg/kg, ip administered every second day for 18 days; assay type: functional, organism-based; conditions: time 18.0 day
B16-F10 [32] = assay: Antitumor activity against mouse B16-F10 cells implanted in C57BL/6 mouse assessed as reduction in tumor burden at 80 mg/kg, ip administered every second day for 18 days in presence of 1,25D; assay type: functional, organism-based; conditions: time 18.0 day
[33] = Toxicity in 4T1 cells implanted BALB/c mouse assessed as stress at 80 mg/kg, ip administered daily for 18 days; assay type: organism-based; conditions: in vivo, 432 h, time 18 day
[34] = Toxicity in 4T1 cells implanted BALB/c mouse assessed as stress at 80 mg/kg, ip administered daily for 18 days in presence of 1,25D; assay type: organism-based; conditions: in vivo, 432 h, time 18 day
[35] = Toxicity in 4T1 cells implanted BALB/c mouse assessed as body weight loss at 80 mg/kg, ip administered daily for 18 days; assay type: organism-based; conditions: in vivo, 432 h, time 18 day
[36] = Toxicity in 4T1 cells implanted BALB/c mouse assessed as body weight loss at 80 mg/kg, ip administered daily for 18 days in presence of 1,25D; assay type: organism-based; conditions: in vivo, 432 h, time 18 day
4T1 [37] = assay: Antitumor activity against mouse 4T1 cells implanted in BALB/c mouse assessed as reduction in tumor burden at 80 mg/kg, ip administered daily for 18 days in presence of 1,25D relative to control; assay type: functional; design: scale not given: the % may be the effect or the level left; conditions: time 18 day
Mus musculus [38] = assay: Immunomodulatory activity in mouse 4T1 cells implanted BALB/c mouse assessed as reduction in total macrophage infiltration into tumors at 80 mg/kg, ip administered daily for 18 days by F4/80 staining based immunofluorescence microscopy; assay type: functional, organism-based; conditions: time 18.0 day

## C=C1/C(=C\C=C2/CCC[C@]3(C)[C@@H]([C@H](C)CCCC(C)(C)O)CC[C@@H]23)C[C@@H](O)C[C@@H]1O [CALCITRIOL]
4T1 [1]
  Activity: Active
MDA-MB-231 [2]
  Activity: Active
4T1 [3]
  Activity: Active
MDA-MB-231 [4]
  Activity: Active
[5]
  Activity: Non-toxic
[6]
  Activity: Non-toxic
[7]
  Activity: Non-toxic
[8]
  Activity: Non-toxic
B16-F10 [9]
  Activity: Active
B16-F10 [10]
  Activity: Active
[11]
  Activity: Non-toxic
[12]
  Activity: Non-toxic
[13]
  Activity: Non-toxic
[14]
  Activity: Non-toxic
4T1 [15]
  Activity: ~20%
Mus musculus [16]
  Activity: Active
Mus musculus [17]
  Activity: Active
Mus musculus [18]
  Activity: Active
Mus musculus [19]
  Activity: Active
Mus musculus [20]
  Activity: Active
Mus musculus [21]
  Activity: Active; Significantly Reduced Macrophage Infiltration Into Tumor

## O=C(CCCCCCC(=O)Nc1ccccc1)NO [VORINOSTAT]
4T1 [1]
  Activity: Active
MDA-MB-231 [2]
  Activity: Active
4T1 [22]
  Activity: Active
MDA-MB-231 [23]
  Activity: Active
[24]
  inhibition: Active
[25]
  Activity: Active
[26]
  inhibition: Active
[27]
  Activity: Non-toxic
[28]
  Activity: Non-toxic
[29]
  Activity: Non-toxic
[30]
  Activity: Non-toxic
B16-F10 [31]
  Activity: Active
B16-F10 [32]
  Activity: Active
[33]
  Activity: Non-toxic
[34]
  Activity: Non-toxic
[35]
  Activity: Non-toxic
[36]
  Activity: Non-toxic
4T1 [37]
  Activity: ~20%
Mus musculus [38]
  Activity: Active; No Significant Effect Observed
